Assay results published in ChEMBL document CHEMBL1135262, “Noncovalent tripeptidic thrombin inhibitors incorporating amidrazone, amine and amidine functions at P1” (Bioorg Med Chem Lett, 2002).

How the values were obtained:
Prothrombin = Prothrombin (Homo sapiens, UniProt P00734); test: Binding affinity against human thrombin
[1] = Compound was evaluated for its pharmacokinetic parameter maximum plasma concentration (Cmax) after oral administration to rats; assay type: ADME, organism-based; set-up: route oral; settings: rat
Serine protease 1 = target: T1, Serine protease 1 (Bos taurus, UniProt P00760); test: Binding affinity against bovine trypsin
T1 sequence (P00760 whole entry): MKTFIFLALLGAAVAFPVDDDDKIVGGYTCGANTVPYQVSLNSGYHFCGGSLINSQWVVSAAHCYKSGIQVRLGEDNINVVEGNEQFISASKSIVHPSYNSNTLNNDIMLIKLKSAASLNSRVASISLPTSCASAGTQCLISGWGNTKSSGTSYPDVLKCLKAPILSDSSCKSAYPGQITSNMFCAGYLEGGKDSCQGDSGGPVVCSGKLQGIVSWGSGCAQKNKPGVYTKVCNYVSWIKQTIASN

[2] = Compound was evaluated for its pharmacokinetic parameter maximum area under curve AUCmax; assay type: ADME, organism-based; set-up: time AUCmax; settings: rat, in vivo
Rattus norvegicus [3] = test: Compound was evaluated for its ability to inhibit thrombus formation in rat model of venous thrombosis at a dose 1 mg/kg; settings: read-out: Inhibition
Rattus norvegicus [4] = test: Compound was evaluated for its ability to inhibit thrombus formation in rat model of venous thrombosis at a dose 0.5 mg/kg; settings: read-out: Inhibition
Coagulation factor X [5] = target: T2, Coagulation factor X (Homo sapiens, UniProt P00742); test: Binding affinity for human Coagulation factor Xa; Inactive
Coagulation factor X [6] = target: T2, Coagulation factor X; test: Compound was evaluated for the binding affinity against human Coagulation factor Xa
Rattus norvegicus [7] = test: Compound at a dose 5 mg/kg was administered intravenously and evaluated for its ability to inhibit thrombus formation in rat model of venous thrombosis; value ranges from 30-67%; assay type: functional; settings: route intravenous
Rattus norvegicus [8] = test: Compound (dose 5 mg/kg) was administered intravenously and evaluated for its ability to inhibit thrombus formation in rat model of venous thrombosis; value ranges from 30-67%; assay type: functional; settings: route intravenous
Rattus norvegicus [9] = test: Compound at a dose 1 mg/kg was administered intravenously and evaluated for its ability to inhibit thrombus formation in rat model of venous thrombosis; assay type: functional; settings: route intravenous
Rattus norvegicus [10] = organism: Rattus norvegicus; test: animal or person; settings: iv, read-out: Inhibition

T2 sequence (P00742 41-179 limits assumed): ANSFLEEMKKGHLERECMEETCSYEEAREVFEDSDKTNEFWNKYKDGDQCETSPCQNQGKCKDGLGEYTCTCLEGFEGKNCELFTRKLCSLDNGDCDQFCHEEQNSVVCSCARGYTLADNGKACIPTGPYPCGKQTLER
T2 sequence (P00742 235-488 limits assumed): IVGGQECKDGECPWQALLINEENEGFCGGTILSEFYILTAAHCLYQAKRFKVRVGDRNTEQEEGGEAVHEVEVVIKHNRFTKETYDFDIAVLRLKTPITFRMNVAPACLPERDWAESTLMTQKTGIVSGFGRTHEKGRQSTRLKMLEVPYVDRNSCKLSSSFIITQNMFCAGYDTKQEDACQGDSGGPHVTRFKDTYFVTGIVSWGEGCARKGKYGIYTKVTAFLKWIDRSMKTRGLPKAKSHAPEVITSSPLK

SMILES | Ki (Prothrombin) [nM] | Cmax [1] [ng/mL] | Ki (Serine protease 1) [nM] | AUC [2] [µg·h/mL] | Ki (Coagulation factor X [5]) | further results
N=C(N)c1ccc(CNC(=O)[C@@H]2CCCN2C(=O)[C@H](NS(=O)(=O)NC2CCCCC2)C(c2ccccc2)c2ccccc2)cc1.O=C(O)C(F)(F)F | 0.003 | < 300 | 0.25 |  |  | 
N=C(N)c1ccc(CNC(=O)[C@@H]2CCCN2C(=O)[C@H](NS(=O)(=O)Cc2ccccc2)C(c2ccccc2)c2ccccc2)cc1.O=C(O)C(F)(F)F | 0.005 | 900 | 0.58 | 68 |  | 
N=C(N)c1ccc(CNC(=O)[C@@H]2CCCN2C(=O)[C@H](NS(N)(=O)=O)C(c2ccccc2)c2ccccc2)cc1.O=C(O)C(F)(F)F | 0.003 | 2800 | 0.3 | 272 |  | inhibition in vivo at 1 mg/kg (Rattus norvegicus [3]): 100%; inhibition in vivo at 0.5 mg/kg (Rattus norvegicus [4]): 80%
N=C(N)c1ccc(CNC(=O)[C@@H]2CCCN2C(=O)[C@H](NCC(=O)O)C(c2ccccc2)c2ccccc2)cc1.O=C(O)C(F)(F)F | 0.015 | 1300 | 3 | 120 |  | 
N=C(N)c1ccc(CNC(=O)[C@@H]2CCCN2C(=O)[C@H](Nc2ccccc2)C(c2ccccc2)c2ccccc2)cc1.O=C(O)C(F)(F)F |  | 300 | 1.5 | 53 |  | 
COP(=O)(N[C@@H](C(=O)N1CCC[C@H]1C(=O)NCc1ccc(C(=N)N)cc1)C(c1ccccc1)c1ccccc1)OC.O=C(O)C(F)(F)F | 0.044 | 4000 | 2.9 | 271 |  | 
N=C(N)c1ccc(CNC(=O)[C@@H]2CCCN2C(=O)[C@H](NS(=O)(=O)O)C(c2ccccc2)c2ccccc2)cc1.O=C(O)C(F)(F)F | 0.1 | 550 | 4.4 | 35 |  | 
COC(=O)N[C@@H](C(=O)N1CCC[C@H]1C(=O)NCc1ccc(C(=N)N)cc1)C(c1ccccc1)c1ccccc1.O=C(O)C(F)(F)F | 0.036 | 3900 | 0.31 | 594 |  | 
CC(=O)N[C@@H](C(=O)N1CCC[C@H]1C(=O)NCc1ccc(C(=N)N)cc1)C(c1ccccc1)c1ccccc1.O=C(O)C(F)(F)F | 0.16 | 3000 |  | 244 |  | 
N=C(N)c1ccc(CNC(=O)[C@@H]2CCCN2C(=O)[C@H](N)C(c2ccccc2)c2ccccc2)cc1.O=C(O)C(F)(F)F |  | 1400 | 2.5 | 107 |  | 
CC(=O)N[C@@H](C(=O)N1CCC[C@H]1C(=O)NCc1ccc(C(=N)NN)s1)C(c1ccccc1)c1ccccc1 | 105 |  |  |  | Not Active | 
N=C(NN)c1ccc(CNC(=O)[C@@H]2CCCN2C(=O)[C@H](NCC(=O)O)C(c2ccccc2)c2ccccc2)s1 | 31 |  | 1100 |  | Not Active | 
CS(=O)(=O)N[C@H](Cc1ccc(Cl)c(Cl)c1)C(=O)N1CCC[C@H]1C(=O)NCc1ccc(C(=N)N)cc1 | 0.05 |  | 0.8 |  |  | Ki (Coagulation factor X [6]): 120 nM
CS(=O)(=O)N[C@@H](C(=O)N1CCC[C@H]1C(=O)NCc1ccc(CN)s1)C(c1ccccc1)c1ccccc1 |  |  | 85 |  | Not Active | inhibition in vivo at 5 mg/kg (Rattus norvegicus [7]): 30%
CS(=O)(=O)N[C@@H](C(=O)N1CCC[C@H]1C(=O)NCc1cc(CN)cs1)C(c1ccccc1)c1ccccc1 | 2.4 |  | 68 |  | Not Active | inhibition in vivo at 5 mg/kg (Rattus norvegicus [8]): 30%
CS(=O)(=O)N[C@@H](C(=O)N1CCC[C@H]1C(=O)NCc1ccc(C(=N)N)cc1)C(c1ccccc1)c1ccccc1 | 0.003 | 2700 | 0.7 | 263 |  | inhibition in vivo at 1 mg/kg (Rattus norvegicus [9]): 70%; Ki (Coagulation factor X [6]): 300 nM
CC(C)(C)OC(=O)N[C@@H](C(=O)N1CCC[C@H]1C(=O)NCc1ccc(C(=N)NN)s1)C(c1ccccc1)c1ccccc1 |  |  |  |  | Not Active | 
CS(=O)(=O)N[C@@H](C(=O)N1CCC[C@H]1C(=O)NCc1cc(C(N)=NN)cs1)C(c1ccccc1)c1ccccc1 | 2.2 |  | 250 |  |  | Ki (Coagulation factor X [6]): 59000 nM
CS(=O)(=O)N[C@@H](C(=O)N1CCC[C@H]1C(=O)NCc1ccc(CN)c(N)c1)C(c1ccccc1)c1ccccc1 | 12 |  | 11 |  | Not Active | 
CS(=O)(=O)N[C@@H](C(=O)N1CCC[C@H]1C(=O)NCc1ccc(C(=N)N)cc1)C1CCCCC1 | 0.5 |  | 9.9 |  |  | Ki (Coagulation factor X [6]): 5000 nM
COC(=O)N[C@@H](C(=O)N1CCC[C@H]1C(=O)NCC#Cc1c[nH]cn1)C(c1ccccc1)c1ccccc1 |  |  | 24000 |  |  | 
Cc1cc(CNC(=O)[C@@H]2CCCN2C(=O)[C@H](NS(C)(=O)=O)C(c2ccccc2)c2ccccc2)ccc1CN | 32 |  | 110 |  | Not Active | 
CS(=O)(=O)N[C@@H](C(=O)N1CCC[C@H]1C(=O)NCc1csc(C(=N)NN)c1)C(c1ccccc1)c1ccccc1 | 1.8 |  | 540 |  | Not Active | 
CS(=O)(=O)N[C@@H](C(=O)N1CCC[C@H]1C(=O)NCc1ccc(CN)nc1)C(c1ccccc1)c1ccccc1 | 6 |  | 220 |  | Not Active | inhibition in vivo at 5 mg/kg (Rattus norvegicus [10]): 30%
CS(=O)(=O)N[C@@H](C(=O)N1CCC[C@H]1C(=O)NCc1ccc(/C(N)=N/N)s1)C(c1ccccc1)c1ccccc1 |  |  | 12 |  |  | Ki (Coagulation factor X [6]): 193 nM
CS(=O)(=O)N[C@H](CC1CCCCC1)C(=O)N1CCC[C@H]1C(=O)NCc1ccc(C(=N)N)cc1 | 0.02 |  | 1.3 |  |  | Ki (Coagulation factor X [6]): 200 nM
CS(=O)(=O)N[C@@H](C(=O)N1CCC[C@H]1C(=O)NCc1ccc(CN)cc1)C(c1ccccc1)c1ccccc1 | 4 |  | 9.9 |  | Not Active | inhibition in vivo at 5 mg/kg (Rattus norvegicus [10]): 30%
CS(=O)(=O)N[C@@H](C(=O)N1CCC[C@H]1C(=O)NCc1ccc(C(=N)N)s1)C(c1ccccc1)c1ccccc1 | 0.005 |  | 0.6 |  |  | Ki (Coagulation factor X [6]): 360 nM
CS(=O)(=O)N[C@@H](C(=O)N1CCC[C@H]1C(=O)NCc1csc(CN)c1)C(c1ccccc1)c1ccccc1 |  |  | 606 |  |  | Ki (Coagulation factor X [6]): 100000 nM; inhibition in vivo at 5 mg/kg (Rattus norvegicus [10]): 30%
CS(=O)(=O)N[C@@H](C(=O)N1CCC[C@H]1C(=O)NCc1ccc(C(=N)NN)cc1)C(c1ccccc1)c1ccccc1 | 47 |  | 150 |  | Not Active | 
